Results taken from PubChem BioAssay AID1259407 (Chemical Carcinogenesis Research Information System (CCRIS), 2018).
Activity calls are given as the source filed them. How the calls were made is not given here.

Test system: CCRIS mutagenicity, Ames/micronucleus/aberration tests
Experiment: CCRIS mutagenicity studies
Conditions: Test System: AMES SALMONELLA TYPHIMURIUM

SMILES: Nc1ccc(-c2ccccc2)cc1
- mutagenic call (Strain/Indicator: DJ400, Metabolic Activation: TOBACCO TX1 CELLS, Method: PREINCUBATION): inactive; negative
- mutagenic call (Strain/Indicator: DJ460, Metabolic Activation: TOBACCO TX1 CELLS, Method: PREINCUBATION): active; positive
- mutagenic call (Strain/Indicator: MP110, Metabolic Activation: TOBACCO TX1 CELLS, Method: PREINCUBATION): inactive; negative
- mutagenic call (Strain/Indicator: MP120, Metabolic Activation: TOBACCO TX1 CELLS, Method: PREINCUBATION): inactive; negative
- mutagenic call (Strain/Indicator: MP208, Metabolic Activation: TOBACCO CELL-FREE TXIMX, Method: PREINCUBATION): active; positive
- mutagenic call (Strain/Indicator: MP219, Metabolic Activation: TOBACCO CELL-FREE TXIMX, Method: PREINCUBATION): active; positive
- mutagenic call (Strain/Indicator: TA97, Metabolic Activation: NONE, Method: STANDARD PLATE): inactive; negative
- mutagenic call (Strain/Indicator: TA97, Metabolic Activation: RAT, LIVER, S-9, AROCLOR 1254, Method: STANDARD PLATE): active; positive
- mutagenic call (Strain/Indicator: TA98(1,8-DNP6), Metabolic Activation: PLANT CELLS, Method: PREINCUBATION): active; positive
- mutagenic call (Strain/Indicator: TA98(1,8-DNP6), Metabolic Activation: TOBACCO CELL-FREE TXIMX, Method: PREINCUBATION): inactive; negative
- mutagenic call (Strain/Indicator: TA98(NR), Metabolic Activation: TOBACCO CELL-FREE TXIMX, Method: PREINCUBATION): active; positive
- mutagenic call (Strain/Indicator: TA98, Metabolic Activation: HUMAN, RED BLOOD CELL, CYTOSOL, Method: PREINCUBATION): active; positive
- mutagenic call (Strain/Indicator: TA98, Metabolic Activation: HUMAN, UROEPITHELIAL CELL CYTOSOL, Method: PREINCUBATION): inactive; negative
- mutagenic call (Strain/Indicator: TA98, Metabolic Activation: HUMAN, UROEPITHELIAL CELL, MICROSOMES, Method: PREINCUBATION): inactive; negative
- mutagenic call (Strain/Indicator: TA98, Metabolic Activation: HUMAN, UROEPITHELIAL CELL, S-9, Method: PREINCUBATION): inactive; negative
- mutagenic call (Strain/Indicator: TA98, Metabolic Activation: NONE, Method: PREINCUBATION): inactive; negative
- mutagenic call (Strain/Indicator: TA98, Metabolic Activation: PLANT CELLS, Method: PREINCUBATION): active; positive
- mutagenic call (Strain/Indicator: TA98, Metabolic Activation: RAT LIVER S-9, AROCLOR 1254, Method: PREINCUBATION): active; positive
- mutagenic call (Strain/Indicator: TA98, Metabolic Activation: RAT LIVER S-9, AROCLOR, Method: STANDARD PLATE): active; positive
- mutagenic call (Strain/Indicator: TA98, Metabolic Activation: RAT, BLADDER, S-9, PCB, Method: FLUCTUATION TEST): active; positive
- mutagenic call (Strain/Indicator: TA98, Metabolic Activation: RAT, LIVER, S-9, AROCLOR 1254 (4%), Method: STANDARD PLATE): active; positive
- mutagenic call (Strain/Indicator: TA98, Metabolic Activation: RAT, LIVER, S-9, KC500 OR PHENOBARBITAL, Method: LIQUID SUSPENSION): active; positive
- mutagenic call (Strain/Indicator: TA98, Metabolic Activation: TOBACCO CELL-FREE TXIMX, Method: PREINCUBATION): active; positive
- mutagenic call (Strain/Indicator: TA100 (1,8-DNP), Metabolic Activation: MOUSE LIVER S-9, AROCLOR 1254, 10%, Method: PREINCUBATION): active; positive
- mutagenic call (Strain/Indicator: TA100 (1,8-DNP), Metabolic Activation: RAT LIVER S-9, AROCLOR 1254, 10%, Method: PREINCUBATION): active; positive
- mutagenic call (Strain/Indicator: TA100(NR), Metabolic Activation: TOBACCO CELL-FREE TXIMX, Method: PREINCUBATION): active; positive
- mutagenic call (Strain/Indicator: TA100(TN:OAT), Metabolic Activation: TOBACCO CELL-FREE TXIMX, Method: PREINCUBATION): active; positive
- mutagenic call (Strain/Indicator: TA100, Metabolic Activation: MOUSE LIVER S-9, AROCLOR 1254, 10%, Method: PREINCUBATION): active; positive
- mutagenic call (Strain/Indicator: TA100, Metabolic Activation: NONE, Method: PREINCUBATION): inactive; negative
- mutagenic call (Strain/Indicator: TA100, Metabolic Activation: RAT LIVER S-9, AROCLOR 1254, 10%, Method: PREINCUBATION): active; positive
- mutagenic call (Strain/Indicator: TA100, Metabolic Activation: RAT LIVER S-9, AROCLOR 1254, Method: PREINCUBATION): active; positive
- mutagenic call (Strain/Indicator: TA100, Metabolic Activation: RAT LIVER S-9, AROCLOR, Method: STANDARD PLATE): active; positive
- mutagenic call (Strain/Indicator: TA100, Metabolic Activation: RAT, BLADDER, S-9, PCB, Method: FLUCTUATION TEST): inactive; negative
- mutagenic call (Strain/Indicator: TA100, Metabolic Activation: RAT, LIVER, S-9, KC500 OR PHENOBARBITAL, Method: LIQUID SUSPENSION): active; positive
